This passage reports TGI and GI50 results from PubChem BioAssay (NCI).

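Five compound concentrations were applied to cells in 96-well plates for 48 hours; endpoints were derived by simple linear interpolation of the resulting dose-response curve. GI50: concentration for 50% inhibition of growth. TGI denotes the concentration required for complete inhibition of growth.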 Some results are limits rather than exact numbers.

Some test systems named below: CAKI-1 renal; CCRF-CEM leukemia; COLO 205 colon; HL-60(TB) leukemia; NCI-H23 lung; OVCAR-3 ovarian; SK-MEL-2 melanoma; SW-620 colon; A498 renal.
Holding throughout (assay): NCI tumour cell line growth inhibition, 48 h

Consider `O=C1CCCC(=O)C1=C(O)CCCCCCCCCCc1ccccc1`, for which the TGI was 38 µM in the assay with CAKI-1 renal; 70.8 µM in the assay with CCRF-CEM leukemia; 31.8 µM in the assay with COLO 205 colon; 35.1 µM with HL-60(TB) leukemia; more than 100 µM in the assay with NCI-H23 lung; more than 100 µM with OVCAR-3 ovarian. The figures for the TGI with SK-MEL-2 melanoma and with SW-620 colon were 49.1 µM and more than 100 µM, respectively.
In the case of `CCOP(=O)(OCC)/C(C#N)=C/c1ccc[nH]1`, the TGI in the assay on CAKI-1 renal, in the assay with CCRF-CEM leukemia, in the assay with COLO 205 colon, in the assay on HL-60(TB) leukemia, in the assay on NCI-H23 lung and in the assay with OVCAR-3 ovarian was more than 100 µM in each case. Moreover, the TGI in the assay with SK-MEL-2 melanoma and in the assay on SW-620 colon was more than 100 µM throughout.
For `Cn1cnc([N+](=O)[O-])c1Sc1nc2cccnc2s1`, the TGI in the assay on A498 renal was more than 100 µM; in the assay on CAKI-1 renal, 21 µM; in the assay with COLO 205 colon it was 22.7 µM; in the assay on OVCAR-3 ovarian, 28.1 µM; in the assay on SW-620 colon, 26.6 µM.
On to `CCOC(=O)N[C@H]1CCc2cc(O)c(OC)c(OC)c2-c2ccc(SC)c(=O)cc21`, for which the TGI in the assay with A498 renal was 0.922 µM; in the assay on CAKI-1 renal, more than 65.3 µM; in the assay with CCRF-CEM leukemia, more than 13.9 µM; in the assay with COLO 205 colon, 1.22 µM; in the assay on NCI-H23 lung, 9.95 µM; with OVCAR-3 ovarian it was 0.0375 µM. For the same compound, the TGI in the assay with SK-MEL-2 melanoma was 0.173 µM; in the assay with SW-620 colon, more than 100 µM.
Regarding `CC1CC(=O)C(CC(=O)O)C1C(C(=O)C(=O)Nc1c(C#N)cccc1[N+](=O)[O-])[N+](=O)[O-]` (centres undefined), the TGI in the assay with A498 renal, with CAKI-1 renal, in the assay on CCRF-CEM leukemia, with COLO 205 colon, in the assay with HL-60(TB) leukemia and in the assay with NCI-H23 lung was more than 100 µM in each case. Further, the TGI with OVCAR-3 ovarian, in the assay on SK-MEL-2 melanoma and with SW-620 colon was more than 100 µM each time.
`CCC[CH2][Sn]1([CH2]CCC)[O]C(=O)c2cccc(OC)c2[O]1`: the GI50 is 0.21 µM with A498 renal; 0.0732 µM in the assay on CAKI-1 renal; 0.0261 µM in the assay with CCRF-CEM leukemia; 0.491 µM in the assay with COLO 205 colon; 0.106 µM in the assay on HL-60(TB) leukemia; 0.265 µM in the assay on NCI-H23 lung. Moreover, the figures for the GI50 in the assay with OVCAR-3 ovarian, with SK-MEL-2 melanoma and in the assay on SW-620 colon were 0.626 µM, 0.156 µM and 0.148 µM, respectively. Further, the TGI with A498 renal was 0.465 µM; in the assay with CAKI-1 renal, 0.775 µM; in the assay with COLO 205 colon it was 1.78 µM; with HL-60(TB) leukemia, 0.98 µM; in the assay on NCI-H23 lung it was 1.25 µM; with OVCAR-3 ovarian, 2.01 µM. The TGI with SK-MEL-2 melanoma came out at 0.574 µM; in the assay on SW-620 colon, 0.366 µM.
In the case of `CCN(CC)CCC(=O)N1CCc2c([nH]c3ccccc23)C1c1cccnc1` (centres undefined), the TGI in the assay on A498 renal, in the assay on CAKI-1 renal, in the assay with CCRF-CEM leukemia, in the assay with HL-60(TB) leukemia, in the assay with NCI-H23 lung and in the assay with OVCAR-3 ovarian was more than 100 µM each time. Moreover, the TGI with SW-620 colon was more than 100 µM.
As for `O=C(Nc1ccc([N+](=O)[O-])cc1C(=O)O)c1ccc([N+](=O)[O-])cc1`, the TGI is more than 100 µM in the assay on A498 renal; 26.9 µM in the assay with CCRF-CEM leukemia; 56.7 µM in the assay on HL-60(TB) leukemia; more than 100 µM in the assay on OVCAR-3 ovarian; 92.2 µM in the assay with SK-MEL-2 melanoma; more than 100 µM with SW-620 colon.
Take `N#CCc1ccc(/C(C#N)=C2/OC(=N)C(c3ccc(CC#N)cc3)C2=O)cc1` (centres undefined): the TGI in the assay with A498 renal, with CAKI-1 renal, in the assay on CCRF-CEM leukemia, in the assay on COLO 205 colon, in the assay on HL-60(TB) leukemia and in the assay on NCI-H23 lung was more than 100 µM each time. Besides, the TGI in the assay on OVCAR-3 ovarian, in the assay with SK-MEL-2 melanoma and in the assay on SW-620 colon was more than 100 µM in each case.
With `N#CCCN(CCC#N)c1ccc(/C=N\c2nc(-c3ccccc3)cs2)cc1`, the TGI with A498 renal, in the assay on CAKI-1 renal, in the assay with COLO 205 colon, with HL-60(TB) leukemia, with NCI-H23 lung and with OVCAR-3 ovarian was more than 100 µM in each case. For the same compound, the TGI in the assay with SK-MEL-2 melanoma and with SW-620 colon was more than 100 µM throughout.
Turning to `Cn1cnc([N+](=O)[O-])c1SC1=NCCS1`, the TGI in the assay on A498 renal, with CAKI-1 renal, in the assay with CCRF-CEM leukemia, with COLO 205 colon, in the assay with NCI-H23 lung and with OVCAR-3 ovarian was more than 100 µM throughout. Further, the TGI with SK-MEL-2 melanoma and in the assay with SW-620 colon was more than 100 µM throughout.
On to `Cc1ccc(-c2nc3c(C(=O)NCCN(C)C)cccc3[nH]2)cc1`, for which the TGI was 27.8 µM in the assay on A498 renal; more than 100 µM with CAKI-1 renal; 47.4 µM with CCRF-CEM leukemia; 20.4 µM in the assay with COLO 205 colon; 34.2 µM in the assay with HL-60(TB) leukemia; 30.3 µM with NCI-H23 lung. Moreover, the TGI amounted to 86.7 µM with OVCAR-3 ovarian, 32.8 µM in the assay on SK-MEL-2 melanoma and 28.6 µM in the assay with SW-620 colon.
For the compound `COc1ccc(CC2NCCc3cc(OC)c(OC)cc32)cc1` (centres undefined), the TGI with CAKI-1 renal, in the assay on CCRF-CEM leukemia, in the assay on COLO 205 colon, in the assay with HL-60(TB) leukemia, in the assay with NCI-H23 lung and with OVCAR-3 ovarian was more than 100 µM in each case. The TGI in the assay on SK-MEL-2 melanoma and in the assay with SW-620 colon was more than 100 µM in each case.
Take `Cc1ccc(NC(=O)COC(=O)c2cccc3c(=O)c4ccccc4[nH]c23)cc1`: the TGI in the assay on A498 renal is 92.4 µM; in the assay on CAKI-1 renal, more than 100 µM; with COLO 205 colon, 77.9 µM; in the assay with HL-60(TB) leukemia, more than 100 µM; in the assay with NCI-H23 lung it was 74.3 µM; with OVCAR-3 ovarian, more than 100 µM. Moreover, in the assay with SW-620 colon, the TGI is more than 100 µM.
Take `CC(=O)OC1(C#N)CC2OC1C1C2N1C(=O)OC(C)(C)C` (centres undefined): the TGI in the assay on A498 renal, in the assay with CAKI-1 renal, in the assay on CCRF-CEM leukemia, in the assay with COLO 205 colon, in the assay on HL-60(TB) leukemia and in the assay with NCI-H23 lung was more than 100 µM throughout. For the same compound, the TGI with SK-MEL-2 melanoma and with SW-620 colon was more than 100 µM throughout.
As to `S=P1(c2ccccc2)Nc2ccc(Cl)cc2N1` (centres undefined), the TGI was more than 100 µM with A498 renal; more than 100 µM in the assay with CAKI-1 renal; more than 100 µM with CCRF-CEM leukemia; 45.5 µM in the assay with COLO 205 colon; 57.5 µM in the assay with HL-60(TB) leukemia; more than 100 µM in the assay on NCI-H23 lung. Also, the TGI with OVCAR-3 ovarian, in the assay with SK-MEL-2 melanoma and with SW-620 colon was more than 100 µM in each case.
